The IC50 is the concentration needed to halve the response being measured.

The experiment has as its target Transcription factor Sp1 (Homo sapiens, UniProt P08047). The experiment is described as follows: Inhibition of Sp1 (unknown origin) by luciferase reporter gene assay. (In general: In a reporter assay the amount or activity of a reporter protein is the signal.)

Sequence of Transcription factor Sp1 (P08047 whole entry): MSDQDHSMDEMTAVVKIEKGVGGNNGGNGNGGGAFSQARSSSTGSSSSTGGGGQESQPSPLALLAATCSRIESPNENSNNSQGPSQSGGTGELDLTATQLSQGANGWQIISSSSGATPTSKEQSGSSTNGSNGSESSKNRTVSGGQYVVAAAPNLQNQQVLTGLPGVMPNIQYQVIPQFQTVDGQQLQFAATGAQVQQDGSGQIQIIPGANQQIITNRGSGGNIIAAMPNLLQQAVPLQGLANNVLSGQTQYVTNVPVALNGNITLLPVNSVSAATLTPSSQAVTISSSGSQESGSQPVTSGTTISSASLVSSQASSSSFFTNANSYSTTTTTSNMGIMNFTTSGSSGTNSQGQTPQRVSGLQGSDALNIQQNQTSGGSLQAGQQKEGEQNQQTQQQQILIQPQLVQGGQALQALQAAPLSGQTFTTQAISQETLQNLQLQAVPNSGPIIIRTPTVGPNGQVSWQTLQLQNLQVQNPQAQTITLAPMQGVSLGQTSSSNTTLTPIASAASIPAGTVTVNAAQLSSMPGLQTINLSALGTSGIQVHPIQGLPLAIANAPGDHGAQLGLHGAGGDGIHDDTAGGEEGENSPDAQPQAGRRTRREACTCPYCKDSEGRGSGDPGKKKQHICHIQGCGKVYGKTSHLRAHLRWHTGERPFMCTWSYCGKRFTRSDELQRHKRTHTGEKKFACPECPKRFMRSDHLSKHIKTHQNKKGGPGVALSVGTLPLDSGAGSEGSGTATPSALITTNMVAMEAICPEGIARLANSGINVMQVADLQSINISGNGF

`O=C(N/N=C/c1ccccc1)c1ccc(F)cc1` returned a half-maximal inhibitory concentration (IC50) of 57.7 µM. In other words, the double-digit micromolar range.

Turning to `C=C1C(=O)O[C@H]2[C@H]1CC/C(C)=C/CC[C@@]1(C)O[C@@H]21` [PARTHENOLIDE], the IC50 was determined as 30.2 µM. This IC50 lies about 1.9-fold lower than the previous one.

The record behind these values is BindingDB's records for doi:10.1007/s00044-011-9882-z (n/a, 2012).
